pIC50: −log10 of the molar value. Entries after “also recorded” stand apart in the source; their conditions may differ.
Tests used:
[1] = Acute oral toxicity (LD50 p.o.); type: in vivo; details: for LD50 at 168 h: mouse, in vivo, po, mice, single dose, 7 days survival period; for toxicity (in words): compared with the other tested compounds
Procedure: Test 1. Acute oral toxicity
The acute oral toxicity (LD50 p.o.) was determined by peroral administration of a single dose of the compound to fasting white male mice.
The lethal dose in terms of milligrams of the compound per kilogram of body weight of the tested animals was computed in accordance with the method described by J. P. Litchfeld and F. Wilcoxon in Journal of Pharmacology and Experimental Therapeutics, vol. 96, page 99 (1949).
The doses that are referred to herein were all computed in accordance with the said method. The results in this test were based upon a survival period of 7 days.

[2] = system: hexobarbital sleep duration; test: Sleep prolongation test (hexobarbital); type: in vivo, female mice; details: for ED (4-fold prolongation): Mus musculus, po, dose p.o. 30 min before 65 mg/kg i.v. hexobarbital, mice, read-out: Fourfold prolongation of hexobarbital sleep duration; for sedative effect (in words), sleep prolongation and aggression test: prolongation of hexobarbital sleep duration and aggression test
Procedure: Test 2. Sleep prolongation test
In this test a dose of the test compound is first administered perorally to female mice. After an interval of 30 minutes a dose of 65 milligrams of hexobarbital per kilogram of body weight of the animal is administered intravenously to the mice. The length of the period after administration of the hexabarbital during which the mouse remains sleeping on its side before turning over onto its abdomen, is then noted.

[3] = system: aggression induced by clonidine; test: Inhibition of aggression induced by clonidine (Morpurgo); type: in vivo; details: Mus musculus, ip, 30 min before 46.4 mg/kg i.p. clonidine, mice; read-out: Aggression test (Morpurgo), ED50
Procedure: Test 3. Inhibition of aggression induced by clonidine
This test was described by C. Morpurgo in European Journal of Pharmacology,vol. […] In this test 12 mice are separated into pairs and each mouse is injected intraperitoneally with a dose of the test compound. […] Clonidine at this dosage level produces an aggressive behaviour in the mice which expresses itself in violent bouts of fighting and biting. The mice are observed and their behaviour scored in accordance with a point system. The mice are observed during a period of 30 minutes and each pair of mice scores 2 points if, during any 10 minute interval, two or more encounters or bouts had occurred. Six pairs of mice accordingly cannot score more than a total of 36 points during the 30 minute period, which is rated 100%.

phenyl quinone writhing = test: Analgesic effect, Writhing test (phenyl quinone); type: in vivo, male albino mice (NMRI strain); details: for ED (effect equal to amidopyrine 100 mg/kg): Mus musculus, oral dose equivalent to 100 mg/kg oral amidopyrine, phenyl quinone 1.5 mg/kg, read-out: Writhing-test (dose producing same effect as amidopyrine)
Procedure: The analygesic effect of the substance was determined by the Writhing test. The substances to be tested were administered to male albino mice (NMRI strain) in accordance with the method described by E. Sigmund, R. Cadmus and G. Lu in Proc. Soc. exp. […] After 30 minutes, 1.5 mg. of phenyl quinone per kg. of body weight were administered to the test animals through the abdominal cavity. Amidopyrine was orally administered as comparison substance in a dose of 100 mg/kg. The figures set out in Table 2 indicate the oral doses of the compounds according to the invention in mg/kg which produce the same effect as the dose of the comparison substance.

ileum portion = test: Antihistamine action, Magnus procedure; set-up: species or system Pirbright guinea pigs; details: Cavia porcellus, guinea pig ileum, read-out: Antihistamine action ED50
Description: Test 5. Antihistamine action
The ED50 has been given in mol/1.

[4] = listed as compound of the invention

SMILES	LD50 at 168 h [1]	ED (4-fold prolongation) [2]	ED50 [3]	ED (effect equal to amidopyrine 100 mg/kg) (phenyl quinone writhing)	toxicity (in words) [1, 4]	sedative effect (in words), sleep prolongation and aggression test [2]	sedative effect (in words), sleep prolongation and aggression test [2, 4]	analgesic effect (in words) (phenyl quinone writhing; Writhing test)	pIC50 (ileum portion)	toxicity (in words) [1]
Cc1cccc(OCCN2CCN(CCCC(=O)c3ccc(F)cc3)CC2)c1C [2,3-dimethylphenyl]	1040 mg/kg	120 mg/kg	4.6 mg/kg	23 mg/kg						
Cc1ccc(C)c(OCCN2CCN(CCCC(=O)c3ccc(F)cc3)CC2)c1 [2,5-dimethylphenyl]	1240 mg/kg	100 mg/kg		17 mg/kg						
O=C(CCCN1CCN(CCOc2c(Cl)cccc2Cl)CC1)c1ccc(F)cc1 [2,6-dichlorophenyl, reference compound]	1020 mg/kg	117 mg/kg	7.4 mg/kg							
Cc1ccc(Cl)c(OCCN2CCN(CCCC(=O)c3ccc(F)cc3)CC2)c1 [2-chloro-5-methylphenyl]	464 mg/kg	7 mg/kg	0.35 mg/kg	6 mg/kg	very substantially lower than that of 4-nitrophenyl; also recorded: low toxicity	substantially better results in regard to sedative effects	the same or better than that of the 4-nitrophenyl compound	good analgesic effects	8.15	
Cc1cc(C)cc(OCCN2CCN(CCCC(=O)c3ccc(F)cc3)CC2)c1 [3,5-dimethylphenyl]	297 mg/kg	68 mg/kg		6.9 mg/kg		less satisfactory sedative effect				even a higher toxicity
Cc1cc(Cl)ccc1OCCN1CCN(CCCC(=O)c2ccc(F)cc2)CC1 [4-chloro-2-methylphenyl]	1000 mg/kg	100 mg/kg	2.5 mg/kg	68.1 mg/kg					7.77	
O=C(CCCN1CCN(CCOc2ccc(Cl)cc2)CC1)c1ccc(F)cc1 [4-chlorophenyl, reference compound]	336 mg/kg	21.5 mg/kg	6 mg/kg	5.5 mg/kg					8.05	
O=C(CCCN1CCN(CCOc2ccc([N+](=O)[O-])cc2)CC1)c1ccc(F)cc1 [4-nitrophenyl]	215 mg/kg	8 mg/kg	0.7 mg/kg	1.8 mg/kg					8.40	
O=C(CCCN1CCN(Cc2ccc(F)cc2)CC1)c1ccc(F)cc1 [fluorobenzyl, no O-bridge, reference compound]	431 mg/kg	18.5 mg/kg	7.6 mg/kg	49.5 mg/kg					6.92	
COc1ccc(CN2CCN(CCCC(=O)c3ccc(F)cc3)CC2)cc1 [methoxyphenyl, no O-bridge, reference compound]	431 mg/kg	33.9 mg/kg	4.7 mg/kg	62 mg/kg					6.82	
